These results are taken from patent US5112809A, “CRF analogs” (The Salk Institute for Biological Studies, priority 1990, dated 1992).

For the assay, the system named is cultured rat pituitary cells. The assay is described as follows: secretion of ACTH and β-endorphin by cultured rat pituitary cells in vitro. In kind it is cell-based. To be noted: read-out: concentration at which half-maximal responses are observed (stimulation of secretion of ACTH and β-endorphin). How it is done: The synthetic peptides from Example I and synthetic oCRF are examined for their effects on the secretion of ACTH and β-endorphin in vitro and also in vivo. The potency of synthetic oCRF to stimulate the secretion of ACTH and β-endorphin by cultured rat pituitary cells is measured using the procedure as generally set forth in Endocrinology, 91, 562 (1972). Half-maximal responses are observed at concentrations of the two peptides which are less than the synthetic oCRF concentration of about 250 picomolar which is needed to achieve such a response. In vivo testing using the general procedure set forth in C.

pEC50: −log10 of the molar value.

Regarding “oCRF: ovine corticotropin releasing factor, 41-residue peptide, formula disclosed in U.S. Pat. No. 4,415,558”, the pEC50 is roughly 9.60.
